According to patent US11648248B1 (King Abdulaziz University, priority 2022, dated 2023):
Values after ≈ are worked out from the molar mass of the structure shown. Read-outs that look alike come from different tables or passages of the source.

Tests used:
Format in all cases: cell-based
[1] = tested on: Escherichia coli JW55031 (TolC mutant); assay: MIC broth microdilution, initial screening; conditions: Escherichia coli, read-out: minimum inhibitory concentration (MIC) E. coli (TolC mutant), E. coli JW55031, 18-20 hours
Method: (§1) The minimum inhibitory concentrations (MICs) of the tested compounds and control drugs (linezolid, vancomycin, gentamicin (antibiotics) and fluconazole and 5-fluorocytosine (5-FC) (antifungal drugs)) were determined using the broth microdilution method, according to guidelines outlined by the Clinical and Laboratory Standards Institute (CLSI, Clinical and Laboratory Standards Institute, Methods for antimicrobial susceptibility testing of anaerobic bacteria; approved standard, M11-A8. 8th ed., 2012; CLSI, Clinical and Laboratory Standards Institute. M27-A3 Reference Method for Broth Dilution Antifungal Susceptibility Testing of Yeasts; Approved Standard—Third Edition, Wayne, Pa., 2008) against clinically-relevant bacterial (methicillin-resistant Staphylococcus aureus (MRSA), Escherichia coli, and C. difficile strains) and fungal (Candida albicans) strains. S. aureus and E. coli were grown aerobically overnight on tryptone soy agar plates at 37° C. C. difficile was grown anaerobically on brain heart infusion supplemented agar at 37° C. for 48 hours. C. albicans was grown aerobically overnight on yeast peptone dextrose (YPD) agar plate at 35° C. Afterwards, a bacterial solution equivalent to 0.5 McFarland standard was prepared and diluted in cation-adjusted Mueller-Hinton broth (CAMHB) (for S. aureus and E. coli) to achieve a bacterial concentration of about 5×10^5 CFU/mL. C. difficile was diluted in brain heart infusion supplemented broth, supplemented with yeast extract, hemin and vitamin K to achieve a bacterial concentration of about 5×10^5 CFU/mL. C. albicans was diluted in Roswell Park Memorial Institute (RPMI 1640) medium with glutamine and without bicarbonate (GIBCO by Life Technologies, Green Island, N.Y., USA) which was buffered to pH 7.0 with 0.165 M of [3-(N-morpholino) propanesulfonic acid] (MOPS) (DOT Scientific Inc., Burton, Mich., USA) to achieve a fungal concentration of about 1.5×10^3 CFU/mL. Compounds and control drugs were added in the first row of the 96-well plates and serially diluted with the corresponding media containing bacteria. Plates were then incubated aerobically at 37° C. for 18-20 hours (for S. aureus and E. coli). C. difficile was incubated anaerobically at 37° C. for 48 hours. C. albicans was incubated aerobically at 37° C. for 24 hours.
(§2) The minimum inhibitory concentrations (MICs) of the tested compounds and control drugs; linezolid, vancomycin, gentamicin (antibiotics) and fluconazole and 5-fluorocytosine (5-FC) (antifungal drugs) were determined using the broth microdilution method, according to guidelines outlined by the Clinical and Laboratory Standards Institute (CLSI)^1, 2, 3 against clinically-relevant bacterial (methicillin-resistant Staphylococcus aureus (MRSA), Escherichia coli and Clostridium difficile strains) and fungal (Candida albicans) strain. S. aureus and E. coli were grown aerobically overnight on tryptone soy agar plates at 37° C. C. difficile was grown anaerobically on brain heart infusion supplemented agar at 37° C. for 48 hours. C. albicans was grown aerobically overnight on yeast peptone dextrose (YPD) agar plate at 35° C. Afterwards, a bacterial solution equivalent to 0.5 McFarland standard was prepared and diluted in cation-adjusted Mueller-Hinton broth (CAMHB) (for S. aureus and E. coli) to achieve a bacterial concentration of about 5×10^5 CFU/mL. C. difficile was diluted in brain heart infusion supplemented broth, supplemented with yeast extract, hemin and vitamin K to achieve a bacterial concentration of about 5×10^5 CFU/mL. C. albicans was diluted in Roswell Park Memorial Institute (RPMI 1640) medium with glutamine and without bicarbonate (GIBCO by Life Technologies, Green Island, N.Y., USA) which was buffered to pH 7.0 with 0.165 M of [3-(N-morpholino) propanesulfonic acid]

[2] = tested on: Escherichia coli BW25113 (wild-type); assay: MIC broth microdilution, initial screening; conditions: Escherichia coli, E. coli BW25113, 18-20 hours, read-out: minimum inhibitory concentration (MIC) E. coli (Wild-type)
Method: as §1, §2

[3] = tested on: Vancomycin-resistant Staphylococcus aureus (VRSA10); assay: MBC by plating from MIC wells; conditions: read-out: MBC VRSA10
Text: (§3) Based upon the initial results obtained, the active compounds were further screened against additional clinical isolates of methicillin-sensitive S. aureus (MSSA), methicillin-resistant S. aureus (MRSA), vancomycin-resistant S. aureus (VRSA), Staphylococcus epidermidis, vancomycin-resistant Enterococcus faecium (VRE), vancomycin-resistant Enterococcus faecalis (VRE) and Streptococcus pneumoniae, as presented in Table 2. Additionally, we examined whether the compounds were bacteriostatic (inhibit bacteria from growing) or bactericidal (kill bacteria) by determining the minimum bactericidal concentration (MBC). The MBC was determined by plating 5 μL from each well where no growth was present (in the MIC plates) onto tryptic soya agar plates and incubating plates at 37° C. for 24 hours. The MBC was categorized as the lowest concentration that generated a 99.9% reduction in bacterial colony-forming units (Table 3).

C. albicans (ATCC 64124) = assay: MIC broth microdilution, initial screening; conditions: Candida albicans, read-out: minimum inhibitory concentration (MIC) C. albicans (ATCC 64124)
Method: as §1, §2

[4] = tested on: Clostridium difficile (ATCC-BAA1870); assay: MIC broth microdilution, initial screening; conditions: Clostridioides difficile, ATCCBAA1870, 48 h
Method: as §1, §2

Gram-positive bacteria = assay: Bacteriostatic or bactericidal by MBC versus MIC; conditions: MBC less than or at least three-fold the MIC
Text: as §3

[5] = read-out: minimum inhibitory concentration (MIC) C. difficile (ATCC-BAA1870), anaerobic, 48 hours

Compound | MIC [1] [mg/L] | MIC [2] [mg/L] | MBC ([3]; 99.9% reduction in CFU) [mg/L] | MIC (C. albicans (ATCC 64124); ATCC64124, 24 h) [mg/L] | MIC (C. albicans (ATCC 64124); ATCC64124, RPMI 1640, 24 hours) [mg/L] | MIC ([4]; anaerobic, 48 hours, read-out: minimum inhibitory concentration (MIC) C. difficile (ATCC-BAA1870)) [mg/L] | MIC [4, 5] [mg/L] | bacteriostatic or bactericidal (MBC compared with MIC) (Gram-positive bacteria) | MIC ([4]; read-out: minimum inhibitory concentration (MIC) C. difficile (ATCC-BAA1870)) [mg/L] | MBC [3] [mg/L]
CC(=O)NC[C@H]1CN(c2ccc(N3CCOCC3)c(F)c2)C(=O)O1 [Linezolid, reference compound] | 8 (≈ 23.7 µM) | > 64 | > 64 | – | – | – | – | – | – | –
O=C(Nc1cccc(Nc2ccc(Cl)nn2)c1)Nc1ccc(Cl)c(Cl)c1 [MY14, 1-(3-((6-chloropyridazin-3-yl)amino)phenyl)-3-(3,4-dichlorophenyl)urea] | 2 (≈ 4.89 µM) | > 128 | 8 (≈ 19.6 µM) | > 128 | – | – | – | – | – | –
CNC(=O)c1cc(Oc2ccc(NC(=O)Nc3ccc(Cl)c(C(F)(F)F)c3)cc2)ccn1 [Sorafenib, reference compound] | 1 (≈ 2.15 µM) | > 128 | > 64 | – | > 128 | 1 (≈ 2.15 µM) | – | – | – | –
O=C(Nc1ccc(Oc2ccc(=O)[nH]n2)cc1)Nc1ccc(Cl)c(C(F)(F)F)c1 [MY31, 1-(4-chloro-3-(trifluoromethyl)phenyl)-3-(4-((6-oxo-1,6-dihydropyridazin-3-yl)oxy)phenyl)urea] | 0.5 (≈ 1.18 µM) | > 128 | > 64 | > 128 | – | – | 0.5 to 1 (≈ 1.18 to 2.35 µM) | bacteriostatic | – | –
O=C(Nc1ccc(-c2ccc(=O)[nH]n2)cc1)Nc1ccc(Cl)c(Cl)c1 [MY21, 1-(3,4-dichlorophenyl)-3-(4-(6-oxo-1,6-dihydropyridazin-3-yl)phenyl)urea] | – | – | 2 (≈ 5.33 µM) | – | – | – | 0.5 to 1 (≈ 1.33 to 2.67 µM) | bactericidal | – | –
O=C(Nc1ccc(Oc2ccc(=O)[nH]n2)cc1)Nc1ccc(Cl)c(Cl)c1 [MY24, 1-(3,4-dichlorophenyl)-3-(4-((6-oxo-1,6-dihydropyridazin-3-yl)oxy)phenyl)urea] | 1 (≈ 2.56 µM) | > 128 | > 64 | > 128 | – | – | 0.5 to 1 (≈ 1.28 to 2.56 µM) | bacteriostatic | – | –
CN[C@H](CC(C)C)C(=O)N[C@H]1C(=O)N[C@@H](CC(N)=O)C(=O)N[C@H]2C(=O)N[C@H]3C(=O)N[C@H](C(=O)N[C@H](C(=O)O)c4cc(O)cc(O)c4-c4cc3ccc4O)[C@H](O)c3ccc(c(Cl)c3)Oc3cc2cc(c3O[C@@H]2O[C@H](CO)[C@@H](O)[C@H](O)[C@H]2O[C@H]2C[C@](C)(N)[C@H](O)[C@H](C)O2)Oc2ccc(cc2Cl)[C@H]1O [Vancomycin, reference compound] | – | – | – | – | – | – | – | – | 1 (≈ 0.69 µM) | > 64
